Measurements taken from patent US5854388A, “Angiotensin IV peptides and receptor” (Washington State University Research Foundation, priority 1994, dated 1998).

Assay: Stability of angiotensin peptides in binding buffer (reverse phase HPLC)
Type: physicochemical
Conditions: 4 h at 37° C.
Method: Binding studies were carried out in a buffer (below) containing an extensive cocktail of inhibitors that was designed to minimize metabolism of both the receptor and the test ligand, i.e., the buffer contained 5 mM EDTA, 0.2% BSA, […] Bestatin, 50 μM Plummer's inhibitor, and 100 μM PMSF.

CC[C@H](C)[C@H](NC(=O)[C@H](Cc1ccc(O)cc1)NC(=O)[C@@H](N)C(C)C)C(=O)N[C@@H](Cc1cnc[nH]1)C(=O)N1CCC[C@H]1C(=O)N[C@@H](Cc1ccccc1)C(=O)O [AIV, Val1 Tyr2 Ile3 His4 Pro5 Phe6]
hydrolysis in binding buffer: less than 10%
